Results from US20150105252A1, “SUBSTITUTED PYRAZOLES AS HERBICIDES” (E I DU PONT DE NEMOURS AND COMPANY, priority 2013, published 2015).

Columns and labels:
bluegrass [1] = test: Test D preemergence; assay type: in vivo, Poa annua; settings: scale 0 to 100
Outline: (§1)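 Preemergence: seeds sown in silt loam and sprayed with compounds in a non-phytotoxic solvent with surfactant; postemergence: plants at 2 to 18 cm (1- to 4-leaf stage) in peat-based medium treated likewise. After 14 to 21 days in controlled growth conditions, injury rated visually versus controls on 0 (no effect) to 100 (complete control) scale.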

canarygrass = test: Test D preemergence; assay type: in vivo, Phalaris minor; settings: scale 0 to 100
Outline: as §1

bromegrass, downy = test: Test D preemergence; assay type: in vivo, Bromus tectorum; settings: scale 0 to 100
Excerpt: (§2) Seeds of plant species selected from bluegrass (annual bluegrass, Poa annua), blackgrass (Alopecurus myosuroides), canarygrass (littleseed canarygrass, Phalaris minor), chickweed (common chickweed, Stellaria media), galium (catchweed bedstraw, Galium aparine), bromegrass, downy (downy bromegrass, Bromus tectorum), field poppy (Papaver rhoeas), field violet (Viola arvensis), foxtail, green (green foxtail, Setaria viridis), deadnettle (henbit deadnettle, Lamium amplexicaule), ryegrass, Italian (Italian ryegrass, Lolium multiflorum), kochia (Kochia scoparia), lambsquarters (Chenopodium album), oilseed rape (Brassica napus), pigweed (redroot pigweed, Amaranthus retroflexus), chamomile (scentless chamomile, Matricaria inodora), speedwell (bird's-eye speedwell, Veronica persica), barley, spring (spring barley, Hordeum vulgare), wheat, spring (spring wheat, Triticum aestivum), buckwheat, wild (wild buckwheat, Polygonum convolvulus), mustard, wild (wild mustard, Sinapis arvensis), oat, wild (wild oat, Avena fatua), radish, wild (wild radish, Raphanus raphanistrum), windgrass (Apera spica-venti), Russian thistle (Salsola kali), barley, winter (winter barley, Hordeum vulgare), and wheat, winter (winter wheat, Triticum aestivum) were planted into a silt loam soil and treated preemergence with test chemicals formulated in a non-phytotoxic solvent mixture which included a surfactant.
(§3) At the same time, these species were planted in pots containing Redi-Earth® planting medium (Scotts Company, 14111 Scottslawn Road, Marysville, Ohio 43041) comprising spaghnum peat moss, vermiculite, wetting agent and starter nutrients and treated with postemergence applications of the test chemicals formulated in the same manner. Plants ranged in height from 2 to 18 cm (1- to 4-leaf stage). Treated plants and controls were maintained in a controlled growth environment for 14 to 21 days after which time all species were compared to controls and visually evaluated. Plant response ratings, summarized in Table D, are based on a scale of 0 to 100 where 0 is no effect and 100 is complete control. A dash (-) response means no test result.

deadnettle = test: Test D preemergence; assay type: in vivo, Lamium amplexicaule; settings: scale 0 to 100
Outline: as §1

kochia [2] = test: Test D preemergence; assay type: in vivo, Kochia scoparia; settings: scale 0 to 100
Outline: as §1

oilseed rape = test: Test D preemergence; assay type: in vivo, Brassica napus; settings: scale 0 to 100
Outline: as §1

bluegrass [3] = test: Test D postemergence; assay type: in vivo, Poa annua; settings: scale 0 to 100
Excerpt: as §2, §3

galium = test: Test D postemergence; assay type: in vivo, Galium aparine; settings: scale 0 to 100
Excerpt: as §2, §3

speedwell = test: Test D postemergence; assay type: in vivo, Veronica persica; settings: scale 0 to 100
Outline: as §1

buckwheat, wild = test: Test D postemergence; assay type: in vivo, Polygonum convolvulus; settings: scale 0 to 100
Excerpt: as §2, §3

lambsquarters = test: Test F preemergence; assay type: in vivo, Chenopodium album
Excerpt: (§4) Seeds of plant species selected from corn (Zea mays), soybean (Glycine max), velvetleaf (Abutilon theophrasti), lambsquarters (Chenopodium album), wild poinsettia (Euphorbia heterophylla), pigweed, palmer (palmer pigweed, Amaranthus palmeri), common waterhemp (Amaranthus rudis), surinam grass (Brachiaria decumbens), large crabgrass (Digitaria sanguinalis), crabgrass, Brazil (Brazilian crabgrass, Digitaria horizontalis), fall panicum (Panicum dichotomiflorum), giant foxtail (Setaria faberii), green foxtail (Setaria viridis), goosegrass (Eleusine indica), johnsongrass (Sorghum halepense), common ragweed (Ambrosia elation), barnyardgrass (Echinochloa crus-galli), southern sandbur (Cenchrus echinatus), arrowleaf sida (Sida rhombifolia), Italian ryegrass (Lolium multiflorum), dayflower, VA (Virginia (VA) dayflower, Commelina virginica), field bindweed (Convolvulus arvensis), cocklebur (common cocklebur, Xanthium strumarium), morningglory (Ipomoea coccinea), nightshade (eastern black nightshade, Solanum ptycanthum), kochia (Kochia scoparia), yellow nutsedge (Cyperus esculentus), and hairy beggarticks (Bidens pilosa), were planted into a silt loam soil and treated preemergence with test chemicals formulated in a non-phytotoxic solvent mixture which included a surfactant.
(§5) At the same time, plants from these crop and weed species and also horseweed (Canada horseweed, Conyza canadensis), smartweed (ladysthumb smartweed, Polygonum persicaria), waterhemp_RES1, (ALS & Triazine resistant common waterhemp, Amaranthus rudis), and waterhemp_RES2, (ALS & HPPD resistant common waterhemp, Amaranthus rudis) were treated with postemergence applications of test chemicals formulated in the same manner. Plants ranged in height from 2 to 18 cm for postemergence treatments (1- to 4-leaf stage). Treated plants and controls were maintained in a greenhouse for 14 to 21 days, after which time all species were compared to controls and visually evaluated. Plant response ratings, summarized in Table F, are based on a scale of 0 to 100 where 0 is no effect and 100 is complete control. A dash (-) response means no test result.

giant foxtail = test: Test F preemergence; assay type: in vivo, Setaria faberii
Outline: (§6)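 Pre- and postemergence applications used the same formulation, a non-phytotoxic solvent mixture including surfactant. Soil-applied treatment followed sowing into silt loam, whereas foliar treatment hit plants at the 1- to 4-leaf stage. Scores (0 = no effect, 100 = complete control) were assigned visually after 14–21 days.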

southern sandbur = test: Test F preemergence; assay type: in vivo, Cenchrus echinatus
Outline: as §6

kochia [4] = test: Test F preemergence; assay type: in vivo, Kochia scoparia
Excerpt: as §4, §5

[5] = Preemergence, 31 g ai/ha, scale 0 to 100
[6] = Preemergence, 62 g ai/ha, scale 0 to 100
[7] = Preemergence, 125 g ai/ha, scale 0 to 100
[8] = preemergence, 8 g ai/ha, scale 0 to 100, 100 is complete control
[9] = preemergence, 16 g ai/ha, scale 0 to 100, 100 is complete control

Question: For `CCc1cc(C(=O)NCC(F)(F)F)nn1Cc1ccnc(C(F)(F)F)c1` [Compound 78, 5-ethyl-N-(2,2,2-trifluoroethyl)-1-[[(2-trifluoromethyl)-4-pyridinyl]methyl]-1H-pyrazole-3-carboxamide], which “Plant response rating, Bluegrass” value (bluegrass [1]; 31 g ai/ha) is on record?
Answer: 50

Question: And the “Plant response rating, Bluegrass” value (bluegrass [1]; 62 g ai/ha)?
Answer: 80

Question: What about the “Plant response rating, Bluegrass” value (bluegrass [1]; 125 g ai/ha) of the same compound?
Answer: 95

Question: What about the “Plant response rating, Bluegrass” value (bluegrass [1]; 250 g ai/ha) of the same compound?
Answer: 100

Question: And the “Plant response rating, Canarygrass” value (canarygrass; 31 g ai/ha)?
Answer: 15

Question: What about the “Plant response rating, Canarygrass” value (canarygrass; 62 g ai/ha) of the same compound?
Answer: 30

Question: And the “Plant response rating, Canarygrass” value (canarygrass; 125 g ai/ha)?
Answer: 90

Question: And the “Plant response rating, Canarygrass” value (canarygrass; 250 g ai/ha)?
Answer: 100

Question: And the “Plant response rating, Bromegrass, Downy” value (bromegrass, downy; 31 g ai/ha)?
Answer: 10

Question: What about the “Plant response rating, Bromegrass, Downy” value (bromegrass, downy; 62 g ai/ha) of the same compound?
Answer: 20

Question: What about the “Plant response rating, Bromegrass, Downy” value (bromegrass, downy; 125 g ai/ha) of the same compound?
Answer: 70

Question: And the “Plant response rating, Bromegrass, Downy” value (bromegrass, downy; 250 g ai/ha)?
Answer: 75

Question: What about the “Plant response rating, Deadnettle” value (deadnettle; 31 g ai/ha) of the same compound?
Answer: 10

Question: What about the “Plant response rating, Deadnettle” value (deadnettle; 62 g ai/ha) of the same compound?
Answer: 10

Question: And the “Plant response rating, Deadnettle” value (deadnettle; 125 g ai/ha)?
Answer: 25

Question: And the “Plant response rating, Deadnettle” value (deadnettle; 250 g ai/ha)?
Answer: 100

Question: And the “Plant response rating, Kochia” value (kochia [2]; 31 g ai/ha)?
Answer: 95

Question: What about the “Plant response rating, Kochia” value (kochia [2]; 62 g ai/ha) of the same compound?
Answer: 100

Question: What about the “Plant response rating, Kochia” value (kochia [2]; 125 g ai/ha) of the same compound?
Answer: 100

Question: What about the “Plant response rating, Kochia” value (kochia [2]; 250 g ai/ha) of the same compound?
Answer: 100

Question: And the “Plant response rating, Oilseed Rape” value (oilseed rape; 31 g ai/ha)?
Answer: 35

Question: What about the “Plant response rating, Oilseed Rape” value (oilseed rape; 62 g ai/ha) of the same compound?
Answer: 80

Question: What about the “Plant response rating, Oilseed Rape” value (oilseed rape; 125 g ai/ha) of the same compound?
Answer: 100

Question: And the “Plant response rating, Oilseed Rape” value (oilseed rape; 250 g ai/ha)?
Answer: 100

Question: And the “Bluegrass plant response rating” value (bluegrass [3]; Postemergence, 31 g ai/ha)?
Answer: 10

Question: What about the “Bluegrass plant response rating” value (bluegrass [3]; Postemergence, 125 g ai/ha) of the same compound?
Answer: 15

Question: And the “Bluegrass plant response rating” value (bluegrass [3]; Postemergence, 250 g ai/ha)?
Answer: 30

Question: And the “Bluegrass plant response rating” value (bluegrass [3]; postemergence, 62 g ai/ha)?
Answer: 10

Question: What about the “Galium plant response rating” value (galium; Postemergence, 31 g ai/ha) of the same compound?
Answer: 60

Question: What about the “Galium plant response rating” value (galium; Postemergence, 125 g ai/ha) of the same compound?
Answer: 80

Question: And the “Galium plant response rating” value (galium; Postemergence, 250 g ai/ha)?
Answer: 85

Question: What about the “Galium plant response rating” value (galium; postemergence, 62 g ai/ha) of the same compound?
Answer: 70

Question: What about the “Speedwell plant response rating” value (speedwell; Postemergence, 31 g ai/ha) of the same compound?
Answer: 45

Question: And the “Speedwell plant response rating” value (speedwell; Postemergence, 125 g ai/ha)?
Answer: 80

Question: And the “Speedwell plant response rating” value (speedwell; Postemergence, 250 g ai/ha)?
Answer: 90

Question: And the “Speedwell plant response rating” value (speedwell; postemergence, 62 g ai/ha)?
Answer: 60

Question: What about the “Buckwheat, Wild plant response rating” value (buckwheat, wild; Postemergence, 31 g ai/ha) of the same compound?
Answer: 50

Question: And the “Buckwheat, Wild plant response rating” value (buckwheat, wild; Postemergence, 125 g ai/ha)?
Answer: 65

Question: What about the “Buckwheat, Wild plant response rating” value (buckwheat, wild; Postemergence, 250 g ai/ha) of the same compound?
Answer: 70

Question: What about the “Buckwheat, Wild plant response rating” value (buckwheat, wild; postemergence, 62 g ai/ha) of the same compound?
Answer: 60

Question: And the “Plant response rating, Lambsquarters” value (lambsquarters; [5])?
Answer: 100

Question: What about the “Plant response rating, Lambsquarters” value (lambsquarters; [6]) of the same compound?
Answer: 100

Question: And the “Plant response rating, Lambsquarters” value (lambsquarters; [7])?
Answer: 100

Question: And the “Plant response rating, Lambsquarters” value (lambsquarters; [8])?
Answer: 50

Question: And the “Plant response rating, Lambsquarters” value (lambsquarters; [9])?
Answer: 65

Question: What about the “Plant response rating, Giant Foxtail” value (giant foxtail; [5]) of the same compound?
Answer: 100

Question: And the “Plant response rating, Giant Foxtail” value (giant foxtail; [6])?
Answer: 100

Question: What about the “Plant response rating, Giant Foxtail” value (giant foxtail; [7]) of the same compound?
Answer: 100

Question: What about the “Plant response rating, Giant Foxtail” value (giant foxtail; [8]) of the same compound?
Answer: 5

Question: And the “Plant response rating, Giant Foxtail” value (giant foxtail; [9])?
Answer: 50

Question: What about the “Plant response rating, Southern Sandbur” value (southern sandbur; [5]) of the same compound?
Answer: 5

Question: And the “Plant response rating, Southern Sandbur” value (southern sandbur; [6])?
Answer: 80

Question: What about the “Plant response rating, Southern Sandbur” value (southern sandbur; [7]) of the same compound?
Answer: 95

Question: And the “Plant response rating, Southern Sandbur” value (southern sandbur; [8])?
Answer: 0

Question: And the “Plant response rating, Southern Sandbur” value (southern sandbur; [9])?
Answer: 0

Question: What about the “Plant response rating, Kochia” value (kochia [4]; [5]) of the same compound?
Answer: 100

Question: And the “Plant response rating, Kochia” value (kochia [4]; [6])?
Answer: 100

Question: And the “Plant response rating, Kochia” value (kochia [4]; [7])?
Answer: 100

Question: And the “Plant response rating, Kochia” value (kochia [4]; [8])?
Answer: 40

Question: And the “Plant response rating, Kochia” value (kochia [4]; [9])?
Answer: 65
